Source: patent US20250127759A1, “METHODS AND DOSING REGIMENS COMPRISING A CDK2 INHIBITOR FOR THE TREATMENT OF CANCER” (PFIZER INC., priority 2021, published 2025)
Marks after values point to notes of the source that are not given here.

Key:
[1] = Nonclinical toxicity study, mouse; assay type: in vivo
Protocol: (§1) The selection of the starting dose and regimen was based on the nonclinical toxicology and PK results in accordance with the ICH S9 Guidance. Results from nonclinical toxicity studies indicate the STD10 of PF-07104091 in mouse was 150 mg/kg after BID oral administration. The human equivalent dose for the STD10 in mouse is approximately 729 mg BID (assuming a body weight of 60 kg). Per ICH-S9 guidance, one-tenth of the STD10 can be considered the appropriate starting dose. Given the predicted human t % of approximately 4 hours, the starting dose has been selected to be 75 mg BID. The human AUC0-12 hr of PF-07104091 at the proposed starting oral dose of 75 mg BID is predicted to be ˜6.5% of the observed AUC0-12 hr at the STD10 in mouse (150 mg/kg BID) and ˜80% of the observed AUC0-12 hr at the HNSTD in dog (15 mg/kg BID).

[2] = system: HCC1428; assay: In vivo efficacy, HCC1428 breast cancer model; design: species or system mice; conditions: Day 42, 150 mg/kg BID PO, 150 mg/kg
Protocol: (§2) The HCC1428 model was established by implanting passage 4 tumor fragments into recipient mice. To establish the HCC1428 donor mice, tumor cells (5×10^6 cell/mouse with 50% Cultrex® Basement Membrane Matrix) were subcutaneously implanted in female NSG mice. […] All mice received treatment continuously until Day 42. TGI was assessed on Day 42 post first dose.

[3] = In vivo efficacy, OVCAR3 ovarian cancer tumor model; conditions: female, mouse, NSG mice, po, BID, read-out: maximum tolerated dose level
Protocol: (§3) Female NSG (Jackson Lab) or Nu/nu (CRL) were subcutaneously implanted with tumor cells or fragments (8 mm^3 to 27 mm^3) into the dorsal region. For the MCF7 study, mice were supplemented with estrogen (sc implanted, 17β-estradiol, 0.36 mg, 90-day release pellet, Innovative Research of America, cat no. NE-121).
To establish the OVCAR3 model, tumor cells (5×10^6 cells/mouse with 50% Cultrex® Basement Membrane Matrix) were subcutaneously implanted in female NSG mice. […] PF-07104091 was administered (p.o.) BID (7 hr apart). All mice received treatment continuously for 21 days. TGI was assessed on Day 21 post first dose (or Day 66 post tumor cell implant).

[4] = Nonclinical toxicity study, dog; assay type: in vivo
Protocol: as §1

[5] = system: T47D; assay: In vivo efficacy, T47D breast cancer model; design: species or system mice; conditions: Day 41, 150 mg/kg BID PO
Protocol: as §2, with “T47D” for “HCC1428”, “3” for “4”, “41.” for “42.”, “41” for “42”

[6] = system: OVCAR3 cells; assay: Proliferation inhibition, OVCAR3; assay type: cell-based; conditions: Homo sapiens, OVCAR-3, 168 h, treated for 7 days
Protocol: (§4) Anti-proliferative activity was measured in cells treated for 7 days with PF-07104091 in OVCAR3 cells, Rb mutant NCI-H526 SCLC cells, and both HR-positive HER2-negative MCF7 and the subline MCF7-PalboR (resistant to palbociclib).

[7] = system: MCF7-PalboR cells; assay: Cell cycle distribution and DNA synthesis, MCF7-PalboR; assay type: cell-based; conditions: 72-hour treatment with 300 nM
Protocol: The effect of PF-07104091 on cell cycle distribution and DNA synthesis was determined following 72-hour treatment with 300 nM PF-07104091.

[8] = system: MCF7 cells; assay: Proliferation inhibition, MCF7; assay type: cell-based; conditions: Homo sapiens, 168 h, treated for 7 days
Protocol: as §4

[9] = In vivo efficacy, MCF7 breast cancer model; conditions: female, mouse, NSG mice, po, BID, read-out: maximum tolerated dose level
Protocol: as §3
The MCF7 model was established by implanting donor tumor fragments into recipient mice. To establish the MCF7 donor mice, tumor cells (5×10^6 cells/mouse with 50% Cultrex® Basement Membrane Matrix) were subcutaneously implanted in female NSG mice. […] 150 mg/kg, po, BID is the maximum tolerated dose level in this model. PF 07104091 was administered (p.o.) BID (7 hr apart). TGI was assessed on Day 21 post first dose (or Day 42 post tumor fragment implant).

[10] = system: MCF7 Cells; assay: Combination cell proliferation assay, MCF7; assay type: cell-based, human
Protocol: (§5) The combination effects of PF-07104091 with palbociclib were evaluated in a cell proliferation assay with MCF7 and T47D BC cell lines. […] Drug combinations were analyzed using the Dose Equivalence Principle, and the Loewe Volume score. When modeling synergy using the Dose Equivalence Principle, the Loewe Volume score for the combination compounds should be greater than the compound self-cross controls, and the Combination Index score for the combination compounds should be less than compound self-cross controls. […] Furthermore, the isobolograms set to an anti-proliferation threshold at 70% confirm a synergistic response.

[11] = system: NCI-H526 Model; assay: In vivo efficacy, NCI-H526 small cell lung cancer model; design: species or system mice; conditions: Day 15
Protocol: as §3
To establish the NCI-H526 model, tumor cells (4×10^6 cells/mouse with 50% Cultrex® Basement Membrane Matrix) were subcutaneously implanted in female Nu/nu mice. […] PF-07104091, Palbociclib at 10 mg/kg and CDK 2/4/6 inhibitor were administered (p.o.) BID (7 hr apart). TGI was assessed on Day 15 post first dose (or Day 20 post tumor cell implant).

[12] = system: T-47D Cells; assay: Combination cell proliferation assay, T47D; assay type: cell-based, human
Protocol: as §5

[13] = system: phosphorylation of Rb at Ser807/811; assay: Modulation of pRb Ser807/811 in OVCAR3 cells; assay type: cell-based; conditions: Homo sapiens, OVCAR-3; enriched G1/S phase CCNE1-amplified OVCAR3 cells; mean; read-out: Modulation of pRB Serine 807/811 IC50
Protocol: The cellular activity of PF-07104091 was evaluated by measuring phosphorylation of Rb at Ser807/811 following treatment of enriched G1/S phase CCNE1-amplified OVCAR3 ovarian carcinoma cells.

[14] = system: MCF7-PalboR (resistant to palbociclib); assay: Proliferation inhibition, MCF7-PalboR; assay type: cell-based; conditions: 168 h, read-out: Proliferation Inhibition IC50
Protocol: as §4
The MCF7-PalboR cell model is refractory to palbociclib-induced proliferative inhibition at doses up to […], which exceeds the concentration expected to inhibit CDK4 and CDK6.

With `COCc1cc(C(=O)Nc2cc([C@H]3CC[C@@H](OC(=O)NC(C)C)C3)[nH]n2)n(C)n1` [PF-07104091, (1R,3S)-3-[3-({[3-(methoxymethyl)-1-methyl-1H-pyrazol-5-yl]carbonyl}amino)-1H-pyrazol-5-yl]cyclopentyl propan-2-ylcarbamate] the “human equivalent dose for the STD10 in mouse” value ([1]; assuming a body weight of 60 kg) was “approximately 729 mg BID”, the STD10 ([1]; mouse, BID oral administration) was 150 mg/kg and the TGI % [2] was 95%. For the same molecule, the MTD at 21 days [3] was 175 mg/kg, the HNSTD [4] was 15 mg/kg BID and the TGI % [5] was 82* %. For the same molecule, the IC50 [6] was 0.119 µM, the cell cycle arrest [7] was “significant G2/M arrest” and the “S phase (cell cycle distribution)” value ([7]; p≤0.05 versus vehicle) was “Significant S phase reduction”. For the same molecule, the IC50 [8] was 0.252 µM, the MTD at 21 days [9] was 150 mg/kg and the “Loewe Volume” value [10] was −0.08. The “Best CI” value ([10]; Best CI Level 70) was 1.04, the TGI % ([11]; 25 mg/kg BID PO) was 44% and the TGI % ([11]; 75 mg/kg BID PO) was 45%. For the same molecule, the “Loewe Volume” value [12] was 0.01, the “Best CI” value ([12]; Best CI Level 70) was 0.95 and the IC50 [13] was 0.144 µM. For the same molecule, the IC50 [14] was 0.68 µM.
